# Measurements from patent US10570179B2, “Substituted urea depsipeptide analogs as activators of the CLPP endopeptidase” (priority 2016, dated 2020).
# Where two headings read alike, the source gives them in different places. Numbered stars: 1 amine (or outer) side, 2 acyl side, 3 side chain; on linkers, the order of the positions; unused ones are H or OH. Bridge positions count the residues as written; N and C are the ends. Square brackets hold non-standard residues; d marks the D form. Peptide text beside a SMILES is read from it. * marks the point of attachment. Phe(3-Me) = Cc1cccc(C[C@H](N)C(=O)O)c1; NH(4-Cl-2-F-phenyl) = Fc1cc(Cl)ccc1N*; Hyp = O=C(O)[C@@H]1C[C@@H](O)CN1; NH(4-Me-phenyl) = Cc1ccc(N*)cc1; aThr = C[C@H](O)[C@H](N)C(=O)O; Pip = O=C(O)[C@@H]1CCCCN1; CO = O=C([*:1])[*:2]
# Tests used:
# Assay in all cases: Minimal inhibitory concentration, microbroth dilution
# [1] = tested on: S. aureus ATCC 29213; format: cell-based; conditions: Staphylococcus aureus
# Experimental: (§1) Minimal inhibitory concentrations (“MICs”) were determined using the microbroth dilution method according to Clinical Laboratory Standards Institute (CLSI; National, C.F. C. L. S., Methods for Dilution Antimicrobial Susceptibility Tests for Bacteria Grow aerobically-Seventh Edition: Approved Standard M7-A7, CLSI, Wayne, Pa., USA, 2008) and were read by visual inspection. Two fold serial dilutions of test compound in 100 μL of the appropriate broth media were first prepared in 96-well round bottom microtiter plates (Nalgene Nunc International, Rochester, N.Y., USA). An equivalent volume (100 μL) of bacterial broth inocula containing approximately 10^5 bacterial cfu/mL was added to each well to give final concentrations of test compound starting at 200 μM. The plates were then incubated aerobically at 37° C. All strains were incubated overnight. After incubations, in all cases the MIC was recorded as the lowest concentration of drug that prevented bacterial growth. The bacterial strains for which MIC was determined as described in Table 4.
# [2] = tested on: MRSA NRS70; format: cell-based; conditions: Staphylococcus aureus
# Experimental: as §1
# [3] = tested on: S. aureus USA 300; format: cell-based; conditions: Staphylococcus aureus
# Experimental: as §1
# [4] = tested on: E. faecails; format: cell-based; conditions: Enterococcus faecalis
# Experimental: as §1
# [5] = tested on: S. aureus ΔClpP; format: cell-based, Staphylococcus aureus; conditions: MIC; ClpP inactivated
# Experimental: as §1
# [6] = ATCC29213, read-out: Minimal Inhibitory Concentrations (μM) S. aureus ATCC 29213, MIC
# [7] = read-out: Minimal Inhibitory Concentrations (μM) MRSA NRS70, MIC
# [8] = USA300, read-out: Minimal Inhibitory Concentrations (μM) S. aureus USA 300, MIC
# [9] = read-out: Minimal Inhibitory Concentrations (μM) E. faecails, MIC
# [10] = ATCC29213, MIC, read-out: Minimal Inhibitory Concentrations (μM) S. aureus ATCC 29213
# [11] = MIC, read-out: Minimal Inhibitory Concentrations (μM) MRSA NRS70
# [12] = USA300, MIC, read-out: Minimal Inhibitory Concentrations (μM) S. aureus USA 300
# [13] = MIC, read-out: Minimal Inhibitory Concentrations (μM) E. faecails
Compound,"MIC [1, 6] [µM]","MIC [2, 7] [µM]","MIC [3, 8] [µM]","MIC [4, 9] [µM]",Minimal Inhibitory Concentrations (μM) S. aureus ΔClpP [5] [µM],"MIC [1, 10] [µM]","MIC [2, 11] [µM]","MIC [3, 12] [µM]","MIC [4, 13] [µM]"
"Cc1ccc(NC(=O)N[C@@H](Cc2cccc(C)c2)C(=O)N[C@@H]2C(=O)N3C[C@H](O)C[C@H]3C(=O)N3CCCC[C@H]3C(=O)N[C@@H](C)C(=O)N3CCC[C@H]3C(=O)O[C@H]2C)cc1 [Compound 51, (S)—N-((6S,8AS,14AS,16R,20S,21S,23AS)-16-HYDROXY-6,21-DIMETHYL-5,8,14,19,23-PENTAOXOOCTADECAHYDRO-1H,5H,14H,19H-PYRIDO[2,1-I]DIPYRROLO[2,1-C:2′,1′-L][1]OXA[4,7,10,13]TETRAAZACYCLOHEXADECIN-20-YL)-3-(M-TOLYL)-2-(3-(P-TOLYL)UREIDO)PROPANAMIDE] ({NH(4-Me-phenyl)-CO}-[Phe(3-Me)][aThr][Hyp][Pip]AP; ester 2-C)",5,2.5,5,5,>20,–,–,–,–
"Cc1cccc(C[C@H](NC(=O)Nc2ccc(Cl)cc2F)C(=O)N[C@H]2COC(=O)[C@@H]3CCCN3C(=O)[C@H](C)NC(=O)[C@@H]3CCCCN3C(=O)[C@@H]3C[C@@H](O)CN3C2=O)c1 [Compound 48, (S)-2-(3-(4-CHLORO-2-FLUOROPHENYL)UREIDO)-N-((6S,8AS,14AS,16R,20S,23AS)-16-HYDROXY-6-METHYL-5,8,14,19,23-PENTAOXOOCTADECAHYDRO-1H,5H,14H,19H-PYRIDO[2,1-I]DIPYRROLO[2,1-C:2′,1′-L][1]OXA[4,7,10,13]TETRAAZACYCLOHEXADECIN-20-YL)-3-(M-TOLYL)PROPANAMIDE]",–,–,–,–,–,1.25,1.25,1.25,2.5
"Cc1cccc(C[C@H](NC(=O)Nc2ccc(Cl)cc2F)C(=O)N[C@@H]2C(=O)N3C[C@H](O)C[C@H]3C(=O)N3CCCC[C@H]3C(=O)N[C@@H](C)C(=O)N3CCC[C@H]3C(=O)O[C@H]2C)c1 [Compound 50, (S)-2-(3-(4-CHLORO-2-FLUOROPHENYL)UREIDO)-N-((6S,8AS,14AS,16R,20S,21S,23AS)-16-HYDROXY-6,21-DIMETHYL-5,8,14,19,23-PENTAOXOOCTADECAHYDRO-1H,5H,14H,19H-PYRIDO[2,1-I]DIPYRROLO[2,1-C:2′,1′-L][1]OXA[4,7,10,13]TETRAAZACYCLOHEXADECIN-20-YL)-3-(M-TOLYL)PROPANAMIDE] ({NH(4-Cl-2-F-phenyl)-CO}-[Phe(3-Me)][aThr][Hyp][Pip]AP; ester 2-C)",–,–,–,–,>20,0.625,0.313,1.25,2.5
"Cc1cccc(C[C@H](NC(=O)Nc2cccc(Cl)c2)C(=O)N[C@H]2COC(=O)[C@@H]3C[C@@H](C)CN3C(=O)[C@H](C)NC(=O)[C@@H]3CCCCN3C(=O)[C@@H]3CCCN3C2=O)c1 [Compound 72, (S)-2-(3-(3-CHLOROPHENYL)UREIDO)-N-((2R,6S,8AS,14AS,20S,23AS)-2,6-DIMETHYL-5,8,14,19,23-PENTAOXOOCTADECAHYDRO-1H,5H,14H,19H-PYRIDO[2,1-I]DIPYRROLO[2,1-C:2′,1′-L][1]OXA[4,7,10,13]TETRAAZACYCLOHEXADECIN-20-YL)-3-(M-TOLYL)PROPANAMIDE]",2.5,2.5,2.5,10,>20,–,–,–,–
